Laboratory results: article PMC7251097, “Aspartate/asparagine-β-hydroxylase: a high-throughput mass spectrometric assay for discovery of small molecule inhibitors” (Scientific Reports, 2020)
Where a name gives a salt, the structure may show the parent alone. Read-outs that look alike come from different tables or passages of the source.

Target: T1, His6-AspH315–758 (human aspartate/asparagine-β-hydroxylase, AspH) (Homo sapiens, UniProt Q12797)
T1 construct: N-Terminally His6-tagged human AspH315–758 (His6-AspH315–758) was produced in E. coli BL21 (DE3) cells; made in house; host or cells: E. coli BL21 (DE3), pET-28a(+) vector
T1 sequence (Q12797 315-758): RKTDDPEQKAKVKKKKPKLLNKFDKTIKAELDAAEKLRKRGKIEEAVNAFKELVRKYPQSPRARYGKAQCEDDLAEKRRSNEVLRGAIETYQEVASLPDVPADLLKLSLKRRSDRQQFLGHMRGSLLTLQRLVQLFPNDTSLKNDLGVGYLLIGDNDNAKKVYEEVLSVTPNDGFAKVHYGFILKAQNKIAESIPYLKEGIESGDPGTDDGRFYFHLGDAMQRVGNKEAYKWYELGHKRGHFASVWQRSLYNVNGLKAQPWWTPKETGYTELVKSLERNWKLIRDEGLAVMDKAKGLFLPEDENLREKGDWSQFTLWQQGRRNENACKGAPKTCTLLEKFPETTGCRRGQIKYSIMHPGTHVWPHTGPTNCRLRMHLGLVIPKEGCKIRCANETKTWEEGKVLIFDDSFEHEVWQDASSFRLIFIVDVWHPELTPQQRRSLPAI
Assay: SPE-MS AspH inhibition assay (LOPAC screen at fixed 20 μM and IC50 dose-response), hydroxylation of cyclic peptide hFX-CP101–119
Format: biochemical
Conditions: for Plate 2 (% inhibition) / inhibition at 20 µM: normalised to DMSO and 2,4-PDCA controls; for IC50: 50 nM His6-AspH315–758, 1.0 μM hFX-CP101–119, 3 μM 2OG, 2 μM Fe(II), 50 mM HEPES pH 7.5, 20 °C, mean ± SD, n = 2 (2,4-PDCA n = 10), read-out: IC50; for inhibition at 20 µM: read-out: Plate 2 (% inhibition)

[1] = LOPAC compound at 20uM, plate 3, conversion of substrate peptide
[2] = LOPAC compound at fixed 20 uM, plate 1, normalised to DMSO and 2,4-PDCA controls
[3] = LOPAC compound at fixed 20 uM, substrate conversion, plate 1
[4] = LOPAC Plate 4, compound at 20 uM, substrate conversion
[5] = LOPAC compound at 20uM, plate 2, conversion of substrate peptide
[6] = LOPAC compound at 20uM, plate 2

Compound: COc1cc(OC)c(C=C2C(O)=Nc3ccccc32)c(OC)c1 [IC 261]
- % conversion: 29.42%

Compound: COCCc1ccc(OCC(O)CNC(C)C)cc1.O=C(O)C(O)C(O)C(=O)O (racemic) [(±)-Metoprolol (+)-tartrate]
- Plate 3 (% conversion) [1]: 16.57%

Compound: COc1cc([C@@H]2c3cc4c(cc3[C@H](O)[C@H]3COC(=O)[C@H]23)OCO4)cc(OC)c1OC [Podophyllotoxin]
- Plate 3 (% conversion): 35.15%

Compound: C#CCN(C)CCCOc1ccc(Cl)cc1Cl [Clorgyline hydrochloride]
- Plate 3 (% conversion) [1]: 42.76%

Compound: CCCCCCCCCC[Si](C)(C)CCC(=O)NC(Cc1ccc(C)cc1)c1ccccc1 (stereo not drawn) [Sandoz 58-035]
- Plate 1 (% conversion): 37.15%
- Plate 1 (% inhibition): -3.81%

Compound: Cl.O=C1NCCc2[nH]c(-c3ccncc3)cc21 [PHA 767491 hydrochloride]
- Plate 1 (% inhibition) [2]: -17.71%
- Plate 1 (% conversion) [3]: 41.82%

Compound: Cc1[nH]c2ccc(O)cc2c1CCN.O=C(O)/C=C\C(=O)O [2-Methyl-5-hydroxytryptamine maleate]
- Plate 3 (% conversion): 35.71%

Compound: CC(=O)N1CCN(c2ccc(OCC3COC(Cn4ccnc4)(c4ccc(Cl)cc4Cl)O3)cc2)CC1 (stereo not drawn) [Ketoconazole]
- Plate 3 (% conversion): 46.43%

Compound: O=C(CCCN1CCC(O)(c2cccc(C(F)(F)F)c2)CC1)c1ccc(F)cc1 [Trifluperidol hydrochloride]
- % conversion [4]: 30.59%

Compound: O=C([O-])c1cc2cc(Cc3cccnc3)ccc2o1.[Na+] [Furegrelate sodium]
- Plate 2 (% conversion) [5]: 36.88%
- Plate 2 (% inhibition) [6]: -2.76%

Compound: CN1CCC[C@@H]1Cc1c[nH]c2ccc(Nc3ncccc3[N+](=O)[O-])cc12 [CP-135807]
- % conversion: 37.42%
- Plate 5 (% conversion): 32.28%
- Plate 5 (% inhibition): 11.85%

Compound: CN=c1nc(-c2ccccc2)n(-c2ccccc2)s1 [SCH-202676, reference compound]
- IC50 (listed as C00007): 510 ± 80 nM
- IC50: ~500 nM
- Inhibition at 20 µM [%] (AspH activity, fixed compound concentration 20 μM, initial LOPAC screen, 0.5%v/v DMSO): 100.6%
- % inhibition (LOPAC Plate 4, compound at 20 uM): 100.56%
- % conversion [4]: 2.15%

Compound: COc1cccc2c1[C@@H]1CN(CCCCn3c(=O)[nH]c4c(sc5ncc(-c6ccccc6)nc54)c3=O)C[C@@H]1CO2 [Fiduxosin hydrochloride]
- Plate 2 (% conversion) [5]: 64.73%
- inhibition at 20 µM [6]: -85.9%

Compound: CP-316819
- Plate 5 (% conversion): 34.19%
- Plate 5 (% inhibition): 6.23%

Compound: CC1=C(/C=C/C(C)=C/C=C/C(C)=C/C(=O)Nc2ccc(O)cc2)C(C)(C)CCC1 [Retinoic acid p-hydroxyanilide]
- Plate 2 (% conversion) [5]: 25.03%
- Plate 2 (% inhibition) [6]: 32.63%

Compound: O=C(O)c1ccc(-n2nc(-c3ccccc3O)nc2-c2ccccc2O)cc1 [Deferasirox, reference compound]
- IC50: 2080 ± 810 nM

Compound: NC(=O)OCC(COC(N)=O)c1ccccc1 [Felbamate]
- Plate 2 (% conversion) [5]: 34.68%
- inhibition at 20 µM [6]: 3.82%

Compound: O=C1NC(=O)[C@@]2(CCOc3ccc(F)cc32)N1 [Sorbinil]
- Plate 1 (% inhibition) [2]: -13.94%
- Plate 1 (% conversion) [3]: 40.55%

Compound: CS(=O)(=O)O.Cc1c(O)cccc1C(=O)N[C@@H](CSc1ccccc1)[C@H](O)CN1C[C@H]2CCCC[C@H]2C[C@H]1C(=O)NC(C)(C)C.O [Nelfinavir mesylate hydrate]
- Plate 2 (% conversion) [5]: 32.94%
- Plate 2 (% inhibition) [6]: 9.02%

Compound: NC(=O)c1noc([C@H](CCCC2CCCCC2)CC(=O)NO)n1 [UK-383367]
- Plate 5 (% inhibition) (plate 5 (Pfitzer), test compounds at fixed 20 μM): 50.83%
- Plate 5 (% conversion) (plate 5 (Pfitzer), test compounds at fixed 20 μM, mean conversion DMSO 32.88): 19.02%

Compound: CN(C)c1nc(N)c(C(=O)NC(=N)N)nc1Cl [5-(N,N-Dimethyl)amiloride hydrochloride]
- Plate 1 (% inhibition) [2]: -6.54%
- Plate 1 (% conversion) [3]: 38.07%

Compound: Nc1nc2ccc(Cl)cc2n2c(-c3ccccc3)nnc12 [CP-66713]
- Plate 3 (% conversion): 39.27%
- Plate 5 (% conversion): 29.84%
- Plate 5 (% inhibition): 19.04%

Compound: C[C@]12CC[C@@H]3c4ccc(O)cc4CC[C@H]3[C@@H]1CCC2=O [Estrone]
- Plate 2 (% conversion): 37.75%
- inhibition at 20 µM [6]: -5.35%

Compound: NC(Cc1ccc(Cl)cc1)C(=O)O (racemic) [(±)-p-Chlorophenylalanine]
- Plate 1 (% inhibition) [2]: -1.40%
- Plate 1 (% conversion) [3]: 36.34%
